In patent publication US11111238B2, “Coumarin derivatives, processes for their preparation and uses thereof for the treatment of cancer” (Lead Discovery Center GmbH, priority 2017, dated 2021):

Assays:
[1] = test system: human DLD-1 colon carcinoma xenograft; assay: Therapeutic effect on human DLD-1 colon carcinoma xenograft in nude mice
Method: DLD-1 colon carcinoma cells (5×10^6 cells in 100 μL of PBS/Matrigel), isolated during exponential growth phase from in vitro cell culture, were transplanted s.c. into each female BALB/c nude mouse at day 0. Mice were kept under strictly controlled and standardized barrier conditions in IVC.
Sorafenib) (Nexavar®, which is an approved multi-kinase inhibitor/cytostatic from Bayer A G, was used as a positive control. Body weight and tumor volume (TV) were monitored two to three times per week.
Mice of groups 3, 4 and 5 were treated again at the end of the study period and blood samples were taken to generate plasma 1 h prior and 1 h post treatment. In addition, tumor and tissue samples were isolated, divided into two parts and snap frozen in liquid nitrogen. Mice of groups 1-5 were sacrificed at day 39. Gross autopsy was performed from all mice.

[2] = test system: CA-46 (lymphoma); assay: CellTiter GLO viability assay, CA-46; format: cell-based; conditions: Homo sapiens, CA46, 144 h, read-out: IC50 (μM) incubation time 144 h
Method: (§1) The CellTiter-Glo Luminescent Cell Viability Assay (Promega) is a homogeneous method of determining the number of viable cells in culture. It is based on quantification of ATP, indicating the presence of metabolically active cells.
[…] After incubation for 3 h in humidified chambers at 37° C./5% CO2 compounds/DMSO were added at different concentrations. […] Cells treated with the compound vehicle DMSO were used as positive controls and cells treated with 10 μM Staurosporine served as negative controls. […] Thereon, mixture and assay plates were equilibrated at room temperature for 20 min. Equal volumes of the reagent-medium-mixture was added to the volume of culture medium present in each well.
(§2) The plates were mixed at ˜200 rpm for 2 minutes on an orbital shaker. The microplates were then incubated at room temperature for 10 minutes for stabilization of the luminescent signal. Following incubation the luminescence is recorded on a Victor microplate reader (Perkin Elmer) using 200 ms integration time. The data were then analyzed with Excel using the XLFIT Plugin (dose response Fit 205) for IC50-determination. As quality control the Z′-factor was calculated from 16 positive and negative control values. Only assay results showing a Z′-factor≥0.5 were used for further analysis.

[3] = test system: NCI-H1299 (lung); assay: CellTiter GLO viability assay, NCI-H1299; format: cell-based; conditions: Homo sapiens, 144 h, read-out: IC50 (μM) incubation time 144 h
Method: as §1
(§3) Cells were seeded on day 1 at cell numbers that assure assay linearity and optimal signal intensity. After incubation for 3 h in humidified chambers at 37° C./5% CO2 compounds/DMSO were added at different concentrations. […] Cells treated with the compound vehicle DMSO were used as positive controls and cells treated with 10 μM Staurosporine served as negative controls. […] Thereon, mixture and assay plates were equilibrated at room temperature for 20 min. Equal volumes of the reagent-medium-mixture was added to the volume of culture medium present in each well.
as §2

[4] = test system: human A2780 ovary carcinoma xenograft; assay: Therapeutic effect on human A2780 ovary carcinoma xenograft in nude mice; format: in vivo, nude mice (female NMRI: nu/nu)
Method: In addition to the number of mice needed to build the groups necessary for the experiment, 8 additional mice were transplanted to have a sufficient number of satellite animals to improve stratification. Mice were stratified at day 7, when the mean tumor volume (TV) was 0.213±0.061 cm^3, (median TV=0.206 cm^3) into groups A-D with 8 mice each. 8 mice were excluded because of their tumor size.
Immediately before use, compound 14 was dissolved to obtain an injection solution to be sufficient for one week of treatment. The treatments were indicated as described in Table 6. […] Mean tumor […]±S.D. (RTV) was calculated. […] Mice of groups A, C and D were sacrificed at day 34 (QDx28 for times 28. Gross autopsy was performed from all mice.

[5] = test system: SW948 (colon); assay: CellTiter GLO viability assay, SW948; format: cell-based; conditions: Homo sapiens, 144 h, read-out: IC50 (μM) incubation time 144 h
Method: as §1, §3, §2

[6] = test system: HRT-18 (colon); assay: CellTiter GLO viability assay, HRT-18; format: cell-based; conditions: Homo sapiens, 144 h, read-out: IC50 (μM) incubation time 144 h
Method: as §1, §3, §2

C[C@@H](Oc1ccc2c(-c3ccc(F)cc3Cl)cc(=O)oc2c1)C(=O)N1CCC[C@H](C(=O)O)C1 [Compound 14, (3S)-1-[(2R)-2-[4-(2-chloro-4-fluoro-phenyl)-2-oxo-chromen-7-yl]oxypropanoyl]piperidine-3-carboxylic acid]
Tolerability ([1]; DLD-1 xenograft, p.o. QD × 28 days): well tolerated
Therapeutic effect: tumor growth inhibition ([1]; all doses): dose-dependent tumor growth inhibition
Therapeutic effect: tumor growth inhibition ([1]; lowest dose (50 mg/kg)): minor effect
IC50 [2]: ≤ 0.1 µM
IC50 [3]: 0.1 to 1 µM
Mean tumor weight ([4]; 30 mg/kg p.o. QD × 21): 0.629 g
RTV (relative tumor volume at day 27 compared to D 7) ([4]; 30 mg/kg p.o. QD × 21): 6.8
Tumor weight, % of control ([4]; 30 mg/kg p.o. QD × 21): (75.5) %
Tumor growth inhibition (D 27): Mean TV ([4]; 30 mg/kg p.o. QD × 21, day 27): 1.300 cm^3
optimum T/C value ([4]; 50 mg/kg): 88.3%
optimum T/C value ([4]; 100 mg/kg): 59.2%
Mean tumor weight ([4]; 100 mg/kg p.o. QD × 28): 0.491 g
RTV (relative tumor volume at day 27 compared to D 7) ([4]; 100 mg/kg p.o. QD × 28): 5.1
Tumor weight, % of control ([4]; 100 mg/kg p.o. QD × 28): (60,0) %
Tumor growth inhibition (D 27): Mean TV ([4]; 100 mg/kg p.o. QD × 28, day 27): 0.715 cm^3
optimum T/C value ([4]; 200 mg/kg): 24.9%
Mean tumor weight ([4]; 200 mg/kg p.o. QD × 28): 0.141 g
RTV (relative tumor volume at day 27 compared to D 7) ([4]; 200 mg/kg p.o. QD × 28): 1.1
Tumor weight, % of control ([4]; 200 mg/kg p.o. QD × 28): (16.99) %
Tumor growth inhibition (D 27): Mean TV ([4]; 200 mg/kg p.o. QD × 28, day 27): 0.232 cm^3
Tolerability ([4]; A2780 xenograft, p.o. QD): well tolerated
Therapeutic effect: tumor growth inhibition ([4]; all doses): dose-dependent tumor growth inhibition
Therapeutic effect: tumor growth inhibition ([4]; higher doses (100 and 200 mg/kg)): significantly more active regarding tumor growth inhibition
Therapeutic effect: tumor growth inhibition ([4]; lowest dose (50 mg/kg)): no significant effect
Autopsy at the end ([4]; mouse, in vivo): no abnormal observations
signs of toxicity ([4]; mouse, in vivo, po): no signs of toxicity were observed
IC50 [5]: 0.1 to 1 µM
IC50 [6]: ≤ 0.1 µM
